From patent publication US20190169597A1, “GENOME EDITING ENHANCERS” (bluebird bio, Inc., priority 2016, published 2019)
“Also recorded” adds a separate entry of the source. Counter-ions that a name gives are not always drawn.

How the values were obtained:
[1] = tested on: TCRα gene in primary human T cells; test: Small molecule screen: megaTAL-mediated disruption of the TCRα gene detected by loss of CD3 cell surface staining; type: cell-based; details: 10 μM, 24 hours at 37° C., then three more days; proportion of CD4/CD8+ cells negative for CD3
Description: A small molecule screen (FIG. 1) was performed to identify candidate soluble factors which could modulate the efficiency of genomic editing at the TCR locus in primary human T cells.

[2] = tested on: primary human T cells; test: Small molecule screen: cell yield (flow cytometry events in the live gate); details: 10 μM, 24 hours at 37° C., then three more days; number of flow cytometry events in the live gate
Description: Briefly, purified CD3+ primary human T cells were activated with CD3/CD28 magnetic beads and cultured for 48 hours in IL-2 supplemented complete RPMI media prior to bead removal. After bead removal, T cells were washed and electroporated with in vitro transcribed mRNA encoding a T cell receptor alpha (TCRα) targeting megaTAL-Trex2 fusion mRNA. Cells were then distributed into 384-well format and contacted with a library of ˜2000 known drugs, natural products, and other bioactive components (Microsource Discovery System's Spectrum Collection), with each drug at a final concentration of 10 μM. Cells were cultured with the compounds for 24 hours at 37° C. and then washed and cultured for an additional three days. Cells were then stained for CD3, CD4, and CD8 surface markers, and subjected to high-throughput volumetric flow cytometric analysis.
The number of flow cytometry events in the “live” gate of the FSC/SSC profile was used as a measure of cell yield.

[3] = tested on: TCRα gene in primary T cells; test: Dose response of megaTAL-Trex2 TCRα gene disruption (NHEJ editing efficiency) in primary T cells; type: cell-based, human; details: 24 hours at 30° C. or 37° C.
Description: (§1) T cells were purified, activated and electroporated with mRNA encoding TCRα-targeting megaTAL-Trex2 fusion as described in Example 1. Electroporated cells were cultured for 24 hours at either 30° C. or 37° C. with Tilorone, Aminacrine, Homidium Bromide (Ethidium Bromide) and Harmine. Cells were then washed to remove residual compound and cultured for an additional three days. After the three days of culture, the cells were stained with CD4, CD8 and CD3 and analyzed by flow cytometery as described in Example 1.

[4] = tested on: primary T cells; test: Dose response of primary T cell viability and yield; type: cell-based, human; details: 24 hours at 30° C. or 37° C.
Description: as §1

[5] = tested on: TCRα locus in primary human T cells; test: Aminacrine HDR assay: megaTAL-induced HDR of AAV MND-GFP transgene at the TCRα locus; type: cell-based; details: for % GFP positive cells: megaTAL +
Excerpt: Adeno-associated virus (AAV) plasmids containing transgene cassettes comprising a promoter, a transgene encoding a fluorescent protein, and a polyadenylation signal were designed and constructed. The integrity of AAV ITR elements was confirmed with XmaI digest. The transgene expression cassette was placed between two homology regions within exon 1 of the TCRα gene to enable targeting by homologous recombination (AAV targeting vector) using a TCRα-targeting megaTAL. The 5′ and 3′ homology regions were ˜1500 bp and ˜1000 bp in length, respectively, and neither homology region contained the complete megaTAL target site. The transgene expression cassette contained a myeloproliferative sarcoma virus enhancer, negative control region deleted, d1587rev primer-binding site substituted (MND) promoter operably linked to a polynucleotide encoding a fluorescent polypeptide, e.g., green fluorescent protein (GFP). The expression cassettes also contain the SV40 late polyadenylation signal.
Recombinant AAV-6 (rAAV) was prepared by transiently co-transfecting HEK 293T cells with one or more plasmids providing the replication, capsid, and adenoviral helper elements necessary. rAAV was purified from the co-transfected HEK 293T cell culture using ultracentrifugation in an iodixanol-based gradient.
MegaTAL-induced homology directed repair (HDR) was evaluated in primary human T cells activated with CD3 and CD28 and cultured in complete media supplemented with IL-2. […] Controls included T cells containing megaTAL or rAAV targeting vector alone. Cells were cultured overnight at 30° C. in the presence or absence of two different doses of aminacrine. Five days post electroporation the frequency of GFP+ T cells was measured by flow cytometry.

[6] = tested on: BCL11A erythroid enhancer locus in primary human CD34+ cells; test: HDR of AAV BFP template at the BCL11A erythroid enhancer with BCL11A megaTAL in CD34+ cells; type: cell-based; details: aminacrine 0.3 μM, 1.0 μM, 3.0 μM for 24 hours
Description: Adeno-associated virus (AAV) plasmids containing a promoter, a GFP or BFP reporter transgene and a polyadenylation signal were designed, constructed, and verified. The transgene was flanked by either 1.3 kb and 1.0 kb homology arms to the BCL11A erythroid enhancer locus at DHS58 (Bauer et al., Science. 342(6155): 253-7 (2013)). rAAV is generated by transient transfection of HEK293T cells, as described in Example 3.
(§2) Primary human peripheral blood-derived CD34+ cells were cultured in cytokine-supplemented media for 72 hours. Cells were washed and electroporated with either an mRNA encoding a megaTAL specific for the human BCL11A erythroid enhancer region or a megaTAL targeting the human CCR5 locus. Cells were then incubated with AAV vector with or without aminacrine at concentrations of 0 μM, 0.3 μM, 1.0 μM, and 3.0 μM for 24 hours, washed and cultured in cytokine-supplemented media. HDR was analyzed at regular timepoints by flow cytometry to determine BFP fluorescence.

[7] = tested on: CCR5 locus in primary human CD34+ cells; test: Non-target control: CCR5-specific megaTAL combined with BCL11A-targeting AAV template in CD34+ cells; type: cell-based; details: aminacrine 0.3-3.0 μM for 24 hours
Description: as §2

[8] = tested on: human peripheral blood CD34+ cells; test: Methylcellulose colony forming assay of edited CD34+ cells; type: cell-based
Description: (§3) A potential caveat with using small molecules to enhance gene repair is the impact on hematopoietic stem and progenitor cell survival. The methylceulluose colony forming assay was used to determine the impact of aminacrine treatment on hematopoietic stem and progenitor cell survival in vitro. Human peripheral blood CD34+ cells were cultured in cytokine supplemented media, electroporated with mRNA encoding BCL11A-specific megaTAL and transduced with BCL11A-HDR AAV vector, as described in Example 4.
(§4) Cells were cultured in the presence or absence of aminacrine during the first 24 hours post-electroporation. Following this post-electroporation recovery step, cells were counted and plated into methylcellulose media.
After 14 days in methylcellulose culture, the erythroid burst-forming units (BFU) and hematopoietic colony forming units (CFU) were scored based on frequency and morphology. […] FIG. 6.

[9] = tested on: BCL11A locus in primary human hematopoietic stem and progenitor cells; test: HDR in methylcellulose colonies derived from CD34+ cells, by flow cytometry; type: cell-based; details: samples treated with both megaTAL and rAAV vector
Description: as §3, §4
To determine whether treatment with aminacrine could yield elevated HDR rates in methylcellulose colonies derived from primary human hematopoietic stem and progenitor cells, colonies were harvested and analyzed by flow cytometry. […] FIG. 7.

[10] = tested on: BCL11A erythroid enhancer region in primary human CD34+ cells; test: HDR in bulk CD34+ cell population with BCL11A megaTAL and AAV donor template; type: cell-based; details: aminacrine 1.0 μM for 24 hours
Description: as §2, with “48” for “72”, “with” for “with either”, “region.” for “region or a megaTAL targeting the human CCR5 locus.”, “a concentration” for “concentrations”, “of” for “of 0 μM, 0.3 μM,”, “1.0” for “1.0 μM, and 3.0”

| Structure (SMILES) | % CD3 negative [1] [%] | Cell Yield [2] | efficiency of TCRα disruption (proportion of CD3-negative cells), in words [3] | also measured |
| --- | --- | --- | --- | --- |
| COc1cccc2c1C(=O)c1c(O)c3c(c(O)c1C2=O)C[C@@](O)(C(C)=O)C[C@@H]3O[C@H]1C[C@H](N)[C@H](O)[C@H](C)O1 [Daunorubicin] | 73.3 | 35 | – | – |
| COc1ccc2c(c1)[nH]c1c(C)nccc12 [Harmine] | 75.1 | 9581 | Enhance MegaTAL-Mediated Gene Disruption | – |
| OC[C@H]1O[C@@H](n2cnc3c(NCc4ccco4)ncnc32)[C@H](O)[C@@H]1O [Kinetin Riboside] | 70.8 | 1668 | – | – |
| C[n+]1cc2c3c(ccc2c2ccc4cc5c(cc4c21)OCO5)OCO3 [Sanguinarine Sulfate] | 71.1 | 2346 | – | – |
| Nc1c2ccccc2nc2ccccc12 [Aminacrine, 9-aminoacridine] | 82.8 | 13621 | Enhance MegaTAL-Mediated Gene Disruption; also recorded: substantially enhanced gene disruption | T cell viability and yield, in words [4]: minimal impact on cell viability; % GFP+ (frequency of HDR events) ([5]; 10 μM aminacrine following megaTAL transfection, 18% without aminacrine): 36%; % GFP positive cells ([5]; Donor 783, Aminacrine 2 μM, AAV-GFP +): 25%; % GFP positive cells ([5]; Donor 783, Aminacrine 2 μM, AAV-GFP −): 0; % GFP positive cells ([5]; Donor 783, Aminacrine 10 μM, AAV-GFP +): 36%; % GFP positive cells ([5]; Donor 783, Aminacrine 10 μM, AAV-GFP −): 0; % GFP positive cells ([5]; Donor 855, Aminacrine 2 μM, AAV-GFP +): 41%; % GFP positive cells ([5]; Donor 855, Aminacrine 2 μM, AAV-GFP −): 0; % GFP positive cells ([5]; Donor 855, Aminacrine 10 μM, AAV-GFP +): 38%; % GFP positive cells ([5]; Donor 855, Aminacrine 10 μM, AAV-GFP −): 0; frequency of HDR events (% GFP+ cells), in words ([5]; T cells, aminacrine 2 μM and 10 μM overnight at 30° C.): concentration-dependent increase; HDR frequency at the BCL11A locus (% BFP+ cells), in words [6]: concentration-dependent increase in HDR frequency; Template capture via a non-homology driven NHEJ pathway, in words [7]: not enhanced; proportion of BFP+ cells with CCR5-specific megaTAL and BCL11A-targeting AAV template, in words [7]: did not significantly increase; proportion of BFP+ cells with CCR5-specific megaTAL and BCL11A-targeting AAV template, in words ([7]; listed as aminacrine): not at the non-target CCR5 locus; lineage output of BFU and CFU colonies, in words ([8]; 14 days in methylcellulose culture, aminacrine during first 24 hours post-electroporation): comparable lineage output and showed no overt lineage skewing; hematopoietic stem and progenitor cell survival, in words ([8]; methylcellulose colony forming assay): does not Adversely Affect; proportion of cells undergoing HDR in methylcellulose colonies, in words [9]: increased the proportion of cells undergoing HDR; HDR frequency at the BCL11A locus (% BFP+ cells) in bulk CD34+ cells, in words [10]: increased HDR frequency; HDR frequency at the BCL11A locus (% BFP+ cells) in bulk CD34+ cells, in words ([10]; listed as aminacrine): increases HDR |
| CCOc1ccc2nc3cc(N)ccc3c(N)c2c1 [Ethacridine Lactate] | 70.4 | 14179 | – | – |
| CC[n+]1c(-c2ccccc2)c2cc(N)ccc2c2ccc(N)cc21 [Homidium Bromide] | 80.3 | 1023 | Enhance MegaTAL-Mediated Gene Disruption | – |
| C[C@@H]1C[C@@H]([C@H](O)CC2CC(=O)NC(=O)C2)C(=O)[C@@H](C)C1 [Cyclohexamide] | 68.7 | 4166 | – | – |
| CCN(CC)CCNc1ccc(CO)c2sc3ccccc3c(=O)c12 [Hycanthone] | 74.1 | 10012 | – | – |
| CCN(CC)CCOc1ccc2c(c1)C(=O)c1cc(OCCN(CC)CC)ccc1-2 [Tilorone] | 86.8 | 310 | Enhance MegaTAL-Mediated Gene Disruption | – |
